Toxic doses and inconclusive results are not listed. Rule for the calls: active = survival T/C of 150% or more; inactive = T/C below 125% in these data.
Test system: mice, LPC-1 plasma cell tumor ip, median survival T/C
Assay: NCI In Vivo Anticancer Drug Screen. Data for tumor model Lieberman Plasma Cell No. 1 (LPC-1) (intraperitoneal) in unknown mice
Settings: endpoint: median survival time, higher = longer survival
Method: The antitumor activity of compounds was measured in mice bearing transplantable tumors. Survival or tumor size were measured and the results are expressed as the measurement made in the treated group (T) divided by the measurement made in the vehicle treated control group (C). The tumor model used in this assay is Lieberman Plasma Cell No. 1 (LPC-1) (intraperitoneal) in unknown mice

[1] = dose: 12.5 mg/kg/injection, schedule: Q01DX028 (sc), vehicle: carboxymethylcellulose (CMC)
[2] = dose: 25.0 mg/kg/injection, schedule: Q01DX028 (sc), vehicle: carboxymethylcellulose (CMC)
[3] = dose: 33.0 mg/kg/injection, schedule: Q01DX028 (sc), vehicle: carboxymethylcellulose (CMC)
[4] = dose: 500.0 mg/kg/injection, schedule: Q01DX028 (sc), vehicle: carboxymethylcellulose (CMC)
[5] = dose: 3.0 mg/kg/injection, schedule: Q01DX028 (sc), vehicle: water
[6] = dose: 5.0 mg/kg/injection, schedule: Q01DX028 (sc), vehicle: water
[7] = dose: 14.0 mg/kg/injection, schedule: Q01DX028 (sc), vehicle: water

Measured: T/C

CS(=O)(=O)OCCN(CCOS(C)(=O)=O)c1ccccc1
active: dose: 6.25 mg/kg/injection, schedule: Q01DX028 (sc), vehicle: carboxymethylcellulose (CMC) 161 % of control | [1] 155 % of control | dose: 15.0 mg/kg/injection, schedule: Q01DX028 (sc), vehicle: carboxymethylcellulose (CMC) 184 % of control | dose: 22.0 mg/kg/injection, schedule: Q01DX028 (sc), vehicle: carboxymethylcellulose (CMC) 194 % of control
inactive: dose: 3.12 mg/kg/injection, schedule: Q01DX028 (sc), vehicle: carboxymethylcellulose (CMC) 113 % of control | [2] 105 % of control | [3] 110 % of control

NC(Cc1ccc(N(CCCl)CCCl)cc1)C(=O)O (configuration not stated)
active: dose: 2.0 mg/kg/injection, schedule: Q01DX028 (sc), vehicle: methylcellulose (MC) 180 % of control | dose: 4.0 mg/kg/injection, schedule: Q01DX028 (sc), vehicle: methylcellulose (MC) 155 % of control
inactive: dose: 8.0 mg/kg/injection, schedule: Q01DX028 (sc), vehicle: methylcellulose (MC) 108 % of control

O=NN(CCCl)C(=O)NC1CCCCC1
inactive: [3] 111 % of control | dose: 75.0 mg/kg/injection, schedule: Q01DX028 (sc), vehicle: carboxymethylcellulose (CMC) 102 % of control

O=c1ccc2cc(OC3OC(CO)C(O)C(O)C3O)c(O)cc2o1 (configuration not stated)
inactive: dose: 400.0 mg/kg/injection, schedule: Q01DX028 (sc), vehicle: carboxymethylcellulose (CMC) 100 % of control | dose: 600.0 mg/kg/injection, schedule: Q01DX028 (sc), vehicle: carboxymethylcellulose (CMC) 100 % of control | dose: 900.0 mg/kg/injection, schedule: Q01DX028 (sc), vehicle: carboxymethylcellulose (CMC) 97 % of control

CS(=O)(=O)OCCN(CCOS(C)(=O)=O)c1ccc(C=Nc2ccc3oc(=O)ccc3c2)cc1
active: dose: 3.5 mg/kg/injection, schedule: Q01DX Z (sc), vehicle: carboxymethylcellulose (CMC) 166 % of control | dose: 3.8 mg/kg/injection, schedule: Q01DX028 (sc), vehicle: steriod suspending solution 165 % of control | dose: 7.0 mg/kg/injection, schedule: Q01DX Z (sc), vehicle: carboxymethylcellulose (CMC) 177 % of control | dose: 7.5 mg/kg/injection, schedule: Q01DX028 (sc), vehicle: steriod suspending solution 188 % of control | dose: 14.0 mg/kg/injection, schedule: Q01DX Z (sc), vehicle: carboxymethylcellulose (CMC) 216 % of control | dose: 15.0 mg/kg/injection, schedule: Q01DX028 (sc), vehicle: steriod suspending solution 250 % of control | dose: 28.0 mg/kg/injection, schedule: Q01DX Z (sc), vehicle: carboxymethylcellulose (CMC) 161 % of control | dose: 30.0 mg/kg/injection, schedule: Q01DX028 (sc), vehicle: steriod suspending solution 230 % of control

CC(=O)[C@H]1CC[C@H]2[C@@H]3C[C@H](C)C4=CC(=O)CC[C@]4(C)[C@H]3C(=O)C[C@]12C
inactive: dose: 108.0 mg/kg/injection, schedule: Q01DX028 (sc), vehicle: carboxymethylcellulose (CMC) 102 % of control | dose: 180.0 mg/kg/injection, schedule: Q01DX028 (sc), vehicle: carboxymethylcellulose (CMC) 100 % of control | dose: 300.0 mg/kg/injection, schedule: Q01DX028 (sc), vehicle: carboxymethylcellulose (CMC) 97 % of control | [4] 97 % of control

Nc1nc(=S)c2ncn(C3OC(CO)C(O)C3O)c2[nH]1 (configuration not stated)
inactive: [5] 121 % of control | [6] 110 % of control | dose: 8.4 mg/kg/injection, schedule: Q01DX028 (sc), vehicle: water 110 % of control | [7] 100 % of control | dose: 23.0 mg/kg/injection, schedule: Q01DX028 (sc), vehicle: water 100 % of control

CN(C)c1ccc(/C=C2\C=Cc3ccccc32)cc1
inactive: dose: 6.3 mg/kg/injection, schedule: Q01DX028 (sc), vehicle: carboxymethylcellulose (CMC) 102 % of control | [1] 102 % of control | [2] 102 % of control | dose: 50.0 mg/kg/injection, schedule: Q01DX028 (sc), vehicle: carboxymethylcellulose (CMC) 97 % of control | dose: 100.0 mg/kg/injection, schedule: Q01DX028 (sc), vehicle: carboxymethylcellulose (CMC) 94 % of control

COc1cc2cccnc2c2[nH]ccc(=O)c12
inactive: dose: 50.0 mg/kg/injection, schedule: Q01DX009 (sc), vehicle: saline 100 % of control | dose: 100.0 mg/kg/injection, schedule: Q01DX009 (sc), vehicle: saline 92 % of control | dose: 200.0 mg/kg/injection, schedule: Q01DX009 (sc), vehicle: saline 102 % of control | dose: 400.0 mg/kg/injection, schedule: Q01DX009 (sc), vehicle: saline 104 % of control

COc1cc2oc(=O)ccc2cc1C(=O)CC(C)C
inactive: dose: 125.0 mg/kg/injection, schedule: Q01DX028 (sc), vehicle: carboxymethylcellulose (CMC) 102 % of control | dose: 250.0 mg/kg/injection, schedule: Q01DX028 (sc), vehicle: carboxymethylcellulose (CMC) 100 % of control | [4] 100 % of control

Cc1cc(N(CCCl)CCCl)ccc1C=Nc1ccccc1-c1ccccc1
inactive: dose: 23.0 mg/kg/injection, schedule: Q01DX015 (sc), vehicle: carboxymethylcellulose (CMC) 92 % of control | dose: 180.0 mg/kg/injection, schedule: Q01DX015 (sc), vehicle: carboxymethylcellulose (CMC) 102 % of control

CN(C)c1nc(N(C)C)nc(N(C)C)n1
inactive: dose: 50.0 mg/kg/injection, schedule: Q01DX009 (ip), vehicle: olive oil, sesame oil, peanut oil 92 % of control | dose: 100.0 mg/kg/injection, schedule: Q01DX009 (ip), vehicle: other 122 % of control | dose: 200.0 mg/kg/injection, schedule: Q01DX009 (ip), vehicle: other 110 % of control | dose: 400.0 mg/kg/injection, schedule: Q01DX009 (ip), vehicle: other 106 % of control

NC(=O)c1ccc(N)nc1
inactive: dose: 0.16 mg/kg/injection, schedule: Q01DX028 (sc), vehicle: water 100 % of control | dose: 0.32 mg/kg/injection, schedule: Q01DX028 (sc), vehicle: water 97 % of control | dose: 0.65 mg/kg/injection, schedule: Q01DX028 (sc), vehicle: water 95 % of control | dose: 1.25 mg/kg/injection, schedule: Q01DX028 (sc), vehicle: water 97 % of control | dose: 2.5 mg/kg/injection, schedule: Q01DX028 (sc), vehicle: water 100 % of control | [6] 107 % of control

N=[N+]=CC(=O)OCC(N)C(=O)O (configuration not stated)
inactive: dose: 1.8 mg/kg/injection, schedule: Q01DX028 (sc), vehicle: water 89 % of control | [5] 102 % of control | [7] 97 % of control

C/C(=N/N=C(N)N)c1ccc(NC(=O)Nc2ccc(/C(C)=N/N=C(N)N)cc2)cc1
inactive: dose: 53.0 mg/kg/injection, schedule: Q01DX028 (sc), vehicle: carboxymethylcellulose (CMC) 97 % of control | dose: 88.0 mg/kg/injection, schedule: Q01DX028 (sc), vehicle: carboxymethylcellulose (CMC) 92 % of control | dose: 147.0 mg/kg/injection, schedule: Q01DX028 (sc), vehicle: carboxymethylcellulose (CMC) 94 % of control | dose: 245.0 mg/kg/injection, schedule: Q01DX028 (sc), vehicle: carboxymethylcellulose (CMC) 97 % of control

CCOC(N)=O
active: dose: 400.0 mg/kg/injection, schedule: Q01DX028 (sc), vehicle: saline 210 % of control | dose: 512.0 mg/kg/injection, schedule: Q01DX028 (sc), vehicle: other 175 % of control
inactive: dose: 128.0 mg/kg/injection, schedule: Q01DX028 (sc), vehicle: other 98 % of control

CCC(CCC(C)C1CCC2C3CC=C4CC(OC(=O)CCC(=O)O)CCC4(C)C3CCC12C)C(C)C (configuration not stated)
inactive: dose: 100.0 mg/kg/injection, schedule: Q01DX028 (sc), vehicle: water 102 % of control | dose: 400.0 mg/kg/injection, schedule: Q01DX028 (sc), vehicle: water 100 % of control

CC(=O)O[C@]1(C(C)=O)CC[C@H]2[C@@H]3C[C@H](C)C4=CC(=O)C=C[C@]4(C)[C@@]3(F)[C@@H](O)C[C@@]21C
inactive: dose: 25.0 mg/kg/injection, schedule: Q01DX028 (sc), vehicle: steriod suspending solution 100 % of control | dose: 50.0 mg/kg/injection, schedule: Q01DX028 (sc), vehicle: steriod suspending solution 97 % of control | dose: 75.0 mg/kg/injection, schedule: Q01DX028 (sc), vehicle: steriod suspending solution 91 % of control | dose: 100.0 mg/kg/injection, schedule: Q01DX028 (sc), vehicle: steriod suspending solution 97 % of control

Reference: PubChem BioAssay AID344 (DTP/NCI, 2004)
